Reference: EP0509845A1, “(+) and (-) enantiomers of 5-aliphatic-6-(benzoxazinyl- or benzothiazinyl)-2,3,4,5-tetrahydropyridazin-3-ones” (ORTHO PHARMACEUTICAL CORPORATION, priority 1991, dated 1992)
Where two headings read alike, the source gives them in different places.

What was measured:
[1] = molecular target: T1, canine cardiac cyclic nucleotide phosphodiesterase (PDE) fraction III (Canis lupus familiaris, UniProt A0A8I3NYE0); experiment: Cyclic AMP phosphodiesterase assay with fraction III isoenzyme, comparative testing; format: biochemical
T1 construct: The fraction III isoenzyme was pooled and dialyzed; from tissue; host or cells: canine heart, soluble supernatant, DEAE cellulose fraction III (800 mM sodium acetate eluate)
T1 sequence (A0A8I3NYE0 1-1135): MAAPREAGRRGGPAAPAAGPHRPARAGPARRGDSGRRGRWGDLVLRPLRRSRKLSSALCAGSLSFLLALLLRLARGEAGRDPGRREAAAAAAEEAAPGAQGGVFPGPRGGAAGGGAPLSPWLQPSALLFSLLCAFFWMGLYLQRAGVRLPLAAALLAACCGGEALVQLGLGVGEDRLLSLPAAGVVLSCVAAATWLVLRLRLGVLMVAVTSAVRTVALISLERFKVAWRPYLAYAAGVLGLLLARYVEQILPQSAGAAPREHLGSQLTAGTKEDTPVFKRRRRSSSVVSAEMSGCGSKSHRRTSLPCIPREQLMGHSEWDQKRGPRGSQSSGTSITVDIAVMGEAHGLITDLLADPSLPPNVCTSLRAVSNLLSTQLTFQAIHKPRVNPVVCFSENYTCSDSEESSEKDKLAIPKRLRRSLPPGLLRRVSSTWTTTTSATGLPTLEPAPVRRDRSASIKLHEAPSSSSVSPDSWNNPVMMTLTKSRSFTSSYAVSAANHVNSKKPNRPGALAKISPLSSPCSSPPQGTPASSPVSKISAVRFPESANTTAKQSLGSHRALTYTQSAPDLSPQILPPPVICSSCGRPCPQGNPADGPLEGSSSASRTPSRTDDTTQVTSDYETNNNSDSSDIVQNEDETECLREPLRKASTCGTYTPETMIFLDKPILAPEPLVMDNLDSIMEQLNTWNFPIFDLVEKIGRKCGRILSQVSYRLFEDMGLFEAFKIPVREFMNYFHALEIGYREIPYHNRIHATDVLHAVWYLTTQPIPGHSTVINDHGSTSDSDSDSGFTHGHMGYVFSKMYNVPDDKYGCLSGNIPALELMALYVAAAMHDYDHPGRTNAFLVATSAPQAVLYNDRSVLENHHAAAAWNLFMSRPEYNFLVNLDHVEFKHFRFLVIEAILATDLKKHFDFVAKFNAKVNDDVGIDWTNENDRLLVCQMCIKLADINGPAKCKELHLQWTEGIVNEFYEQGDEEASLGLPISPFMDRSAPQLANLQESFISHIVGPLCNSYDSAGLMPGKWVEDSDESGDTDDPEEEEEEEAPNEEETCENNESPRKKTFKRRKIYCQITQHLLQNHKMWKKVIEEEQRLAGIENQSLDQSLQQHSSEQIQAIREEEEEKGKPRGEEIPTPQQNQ

adult mongrel dogs = experiment: Comparative racemate and enantiomer hemodynamic testing in pentobarbital anesthetized open-chest dogs; format: in vivo; conditions: for CO Percent Change from Control: cardiac output; for CO Percent Change from Control / CF Percent Change from Control / HR Percent Change from Control / LVEDP Percent Change from Control / MAP Percent Change from Control / dP/dtmax Percent Change from Control / RAP Percent Change from Control / SV Percent Change from Control / SW Percent Change from Control / TPR Percent Change from Control: anesthetized open-chest dogs; for CF Percent Change from Control: contractile force; for HR Percent Change from Control: heart rate; for LVEDP Percent Change from Control: left ventricular end diastolic pressure; for MAP Percent Change from Control: mean blood pressure; for dP/dtmax Percent Change from Control: peak rate of rise in left ventricular pressure; for RAP Percent Change from Control: right atrial pressure; for SV Percent Change from Control: stroke volume (CO/HR x 1000); for SW Percent Change from Control: stroke work; for TPR Percent Change from Control: total peripheral resistance
Protocol: Adult mongrel dogs weighing approximately l0-l4 kg were anesthetized with sodium pentobarbital (35 mg/kg, i.p.) and artificially respired. A femoral artery was cannulated to measure mean arterial pressure (MAP) and a femoral vein was cannulated for administering compounds. A Millar microtip pressure transducer was placed in the left ventricle via the left carotid artery to measure left ventricular end diastolic pressure (EDP). pressure pulses triggered a cardiotachometer for determination of heart rate (HR) while the left ventricular pressure waveform was differentiated using a Gould differentiating amplifier to yield dP/dtmax, an index of contractility. A right thoractomy was performed at the fourth intercostal space and the pericardial sac was opened. An externally calibrated Walton-Brodie strain gauge arch was sutured to the right ventricular free wall and stretched to produce a baseline force of approximately l00g. Subsequent changes in right ventricular contractile force (CF) were measured from this baseline. A Carolina electromagnetic flow probe was placed on the ascending aorta to estimate cardiac output (CO). A flexible fluid-filled catheter was inserted into the tip of the right atrium to measure right atrial pressure (RAP). Needle electrodes were placed in the appropriate limbs to record a lead II electrocardiogram (ECG). The following formulas were used to calculate derived parameters: Stroke volume (SV) = CO/HR x l000 Stroke work (SW) = ([…]) x SV Total peripheral resistance (TPR) = (MAP-EDP)/CO
Following surgery and stabilization of hemodynamic parameters, an i.v. infusion of dopamine (l0-l5 µg/kg/min for 3 min) was administered with a Harvard infusion pump to assess responsiveness to positive inotropic stimulation. Baseline hemodynamic values were obtained immediately prior to drug infusion. Responses were continuously monitored on a recorder (Gould 2800) and data collection was facilitated by the use of a Buxco cardiovascular analyzer and data logger.
In the comparative testing a stock solution of each enantiomer (l mg/ml) was prepared fresh daily and diluted before use. Compounds were dissolved in a small volume of dimethylformamide (DMF) and diluted with saline for a final concentration of l5% DMF. Further dilutions were made with a l5% DMF solution.
In the comparative testing each compound was administered in cumulative doses to separate dogs. Data were obtained at the end of each dose. (±) Bemoradan and (+) Bemordan were infused at cumulative doses of 5, l5, 35 and 75 µg/kg, administered with a Harvard infusion pump for 5 minutes each at rates of 0.56, l.l, 2.2, and […], respectively. (-) Bemoradan was given at doses of 5, l5 and 35 µg/kg following the same protocol. The high dose of the (-) isomer was not administered as a means of conserving compound.
Hemodynamic results were expressed as the percent change from pre-drug baseline values and compared using a Dunnett's test with a criterion for significance of p < 0.05. Contractile force ED₄₀ values (i.e., the dose which increased contractile force by 40%) were calculated from dose-response regression lines.

## CC1CC(=O)NN=C1c1ccc2c(c1)OCC(=O)N2 (single isomer, unassigned; isomer 6) [(+) isomer, 6-(3,4-dihydro-3-oxo-l,4(2H)-benzoxazin-7-yl)-2,3,4,5-tetrahydro-5-methyl-pyridazin-3-one]
[1]; Table I summary, canine cardiac PDE fraction III, read-out: PDE III inhibition (IC50)
  IC50: 8 µM
[1]; canine heart fraction III, 0.1 µM cyclic AMP, read-out: PDE III IC50
  IC50: 8 µM
Adult mongrel dogs; Table I summary, dose increasing contractile force by 40%, dogs, i.v.
  In vivo inotropic ED40, i.v.: 0.0423 mg/kg
Adult mongrel dogs; cumulative i.v. dose 5 µg/kg
  CO Percent Change from Control: 2.0±1.4%
  CF Percent Change from Control: 4.3±2.7%
  HR Percent Change from Control: -0.7±0.8%
  LVEDP Percent Change from Control: -3.4±3.6%
  MAP Percent Change from Control: -1.4±1.1%
  dP/dtmax Percent Change from Control: 2.8±1.0%
  RAP Percent Change from Control: -10.6±8.5%
  SV Percent Change from Control: 2.5±0.7%
  SW Percent Change from Control: 0.7±1.3%
  TPR Percent Change from Control: -3.6±0.7%
Adult mongrel dogs; cumulative i.v. dose 15 µg/kg
  CO Percent Change from Control: 4.8±2.8%
  CF Percent Change from Control: 11.8±3.3%
  HR Percent Change from Control: 1.2±0.8%
  LVEDP Percent Change from Control: -4.9±4.8%
  MAP Percent Change from Control: -1.8±1.7%
  dP/dtmax Percent Change from Control: 7.3±1.8%
  RAP Percent Change from Control: -5.8±9.7%
  SV Percent Change from Control: 4.0±2.4%
  SW Percent Change from Control: 1.7±3.5%
  TPR Percent Change from Control: -6.6±1.7%
Adult mongrel dogs; cumulative i.v. dose 35 µg/kg
  CO Percent Change from Control: 10.6±5.9%
  CF Percent Change from Control: 29.5±5.2%
  HR Percent Change from Control: 4.5±1.0%
  LVEDP Percent Change from Control: -7.4±5.7%
  MAP Percent Change from Control: -2.2±2.2%
  dP/dtmax Percent Change from Control: 18.9±3.6%
  RAP Percent Change from Control: -4.2±8.4%
  SV Percent Change from Control: 6.8±6.1%
  SW Percent Change from Control: 4.4±7.3%
  TPR Percent Change from Control: -11.3±3.7%
Adult mongrel dogs; cumulative i.v. dose 75 µg/kg
  CO Percent Change from Control: 13.4±8.5%
  CF Percent Change from Control: 59.5±7.2%
  HR Percent Change from Control: 10.6±3.7%
  LVEDP Percent Change from Control: -11.2±7.1%
  MAP Percent Change from Control: -3.8±2.8%
  dP/dtmax Percent Change from Control: 37.0±6.4%
  RAP Percent Change from Control: -21.7±13.3%
  SV Percent Change from Control: 6.1±9.1%
  SW Percent Change from Control: 1.9±9.9%
  TPR Percent Change from Control: -14.4±5.3%
Adult mongrel dogs; dose causing a 40% increase in contractility above baseline, from dose-response regression lines, i.v. infusion, dogs
  CF ED40 (µg/kg) with 95% F.L.: 42.3 (33.5 - 56.7) µg/kg
